Like-named read-outs stand apart in the source and are kept apart here.
Experiments:
[1] = tested on: young plant organs (leaves and fruits); details: applied, preferably sprayed, together with the thinning formulations
[2] = tested on: "Golden Delicious" apple variety; details: 7 days post-flowering, standard 98 g, cited from earlier work
apple varieties = assay: Plant tolerance by visual scoring in thinning experiments; type: in vivo; details: application rates 500 mg/l and 700 mg/l
Procedure: According to visual scoring, formulations comprising […] metamitron show no or only minimal damage when used in thinning experiments on a wide range of apple varieties, while formulations comprising 700 mg/l metamitron cause minimal to clearly discernable damage under identical conditions.

plants = details: use for fruit thinning, J. Amer. Soc. Hort. Sci. 115(1): 14-19 (1990); cited from earlier work

With `O=C[O-].O=C[O-].[Ca+2]` [calcium formate] the plant intolerance symptoms [1] was “plant intolerance symptoms were not observed”.

In the case of `Cc1nnc(-c2ccccc2)c(=O)n1N` [metamitron], the fruit weight ([2]; application rate 500 mg/l) is listed as 150 g, the fruit weight ([2]; application rate 700 mg/l) is listed as 180 g and the “plant damage at the application rates of Guzewski” value (apple varieties) is listed as “plant damage (foliar necroses) can be observed”.

For `CSc1nnc(C(C)(C)C)c(=O)n1N` [metribuzin], the plant tolerance (plants) is given as “unsatisfactory”.

Reference: patent US20140373438A1, “Method for Thinning Fruit” (BAYER CROPSCIENCE AG, priority 2001, published 2014)
